Columns and labels:
[1] = tested on: JAK-STAT signalling in HeLa cells; experiment: JAK-STAT signalling assay (pSTAT1(2)-luciferase reporter, OSM-triggered HeLa cells); format: cell-based; conditions: human OSM 33 ng/mL
Procedure: HeLa cells were maintained in Dulbecco's Modified Eagle's Medium (DMEM) containing 10% heat inactivated fetal calf serum, 100 U/mL penicillin and 100 μg/mL streptomycin. HeLa cells were used at 70% confluence for transfection. 20,000 cells in 87 μL cell culture medium were transiently transfected with 40 ng pSTAT1(2)-luciferase reporter (Panomics), 8 ng of LacZ reporter as internal control reporter and 52 ng of pBSK using 0.32 μL Jet-PEI (Polyplus) as transfection reagent per well in 96-well plate format. After overnight incubation at 37° C., 5% CO2, transfection medium was removed. 81 μL of DMEM+1.5% heat inactivated fetal calf serum was added. 9 μL compound at 10× concentration was added for 60 min and then 10 μL of human OSM (Peprotech) at 33 ng/mL final concentration.
All compounds were tested in duplicate starting from 20 μM followed by a ⅓ serial dilution, 8 doses in total (20 μM-6.6 μM-2.2 μM-740 nM-250 nM-82 nM-27 nM-9 nM) in a final concentration of 0.2% DMSO.
After overnight incubation at 37° C., 5% CO2 cells were lysed by adding 100 μL lysis buffer/well (PBS, 0.9 mM CaCl2, 0.5 mM MgCl2, 10% Trehalose, 0.05% Tergitol NP9, 0.3% BSA).
40 μL of cell lysate was used to read β-galactosidase activity by adding 180 μL β-Gal solution (30 μl ONPG 4 mg/mL+150 μL β-Galactosidase buffer (0.06 M Na2HPO4, 0.04 M NaH2PO4, 1 mM MgCl2)) for 20 min. The reaction was stopped by addition of 50 μL Na2CO3 1 M. Absorbance was read at 405 nm.
Luciferase activity was measured using 40 μL cell lysate plus 40 μL of Steadylite® as described by the manufacturer (Perkin Elmer), on the Envision (Perkin Elmer).
Omitting OSM was used as a positive control (100% inhibition). As negative control 0.5% DMSO (0% inhibition) was used. The positive and negative controls were used to calculate z′ and ‘percent inhibition’ (PIN) values. Percentage inhibition=((fluorescence determined in the presence of vehicle−fluorescence determined for sample with test compound present)divided by(fluorescence determined in the presence of vehicle−fluorescence determined for sample without trigger))*100.
PIN values were plotted for compounds tested in dose-response and EC50 values were derived.

Recombinant human JAK1 = biological target: T1, Recombinant human JAK1 (Homo sapiens, UniProt P23458); experiment: JAK1 Ulight-JAK1 peptide assay; format: biochemical; conditions: Ulight-JAK1(tyr1023) peptide, 7 μM ATP
T1 construct: catalytic domain (amino acids 866-1154; catalog number PV4774); purchased Invitrogen PV4774
T1 sequence (P23458 866-1154): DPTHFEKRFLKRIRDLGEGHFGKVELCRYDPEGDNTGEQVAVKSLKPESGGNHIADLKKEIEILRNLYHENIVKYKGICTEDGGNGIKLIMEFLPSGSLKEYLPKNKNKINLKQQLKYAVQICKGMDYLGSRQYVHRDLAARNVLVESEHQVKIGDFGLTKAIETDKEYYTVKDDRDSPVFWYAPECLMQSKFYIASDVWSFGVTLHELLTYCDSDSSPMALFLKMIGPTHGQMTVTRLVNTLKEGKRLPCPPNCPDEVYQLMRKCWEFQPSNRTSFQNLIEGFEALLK
Procedure: Recombinant human JAK1 (catalytic domain, amino acids 866-1154; catalog number PV4774) was purchased from Invitrogen. 1 ng of JAK1 was incubated with 20 nM Ulight-JAK1(tyr1023) peptide (Perkin Elmer catalog number TRF0121) in kinase reaction buffer (25 mM MOPS pH6.8, 0.01% Brij-35, 5 mM MgCl2, 2 mM DTT, 7 μM ATP) with or without 4 μL containing test compound or vehicle (DMSO, 1% final concentration), in a total volume of 20 μL, in a white 384 Opti plate (Perkin Elmer, catalog number 6007290). After 60 min at room temperature, reactions were stopped by adding 20 μL/well of detection mixture (1× detection buffer (Perkin Elmer, catalog number CR97-100C), 0.5 nM Europium-anti-phosphotyrosine (PT66) (Perkin Elmer, catalog number AD0068), 10 mM EDTA). Readout is performed using the Envision with excitation at 320 nm and measuring emission at 615 nm (Perkin Elmer). Kinase activity was calculated by subtracting relative fluorescence units (RFU) obtained in the presence of a positive control inhibitor (10 μM staurosporine) from RFU obtained in the presence of vehicle. The ability of a test compound to inhibit this activity was determined as: Percentage inhibition=((RFU determined for sample with test compound present−RFU determined for sample with positive control inhibitor)divided by(RFU determined in the presence of vehicle−RFU determined for sample with positive control inhibitor))*100.
Dose dilution series were prepared for the compounds enabling the testing of dose-response effects in the JAK1 assay and the calculation of the IC50 for the compound. Each compound is routinely tested at concentration of 20 μM followed by a ⅕ serial dilution, 10 points in a final concentration of 1% DMSO. When potency of compound series increases, more dilutions are prepared and/or the top concentration are lowered (e.g. 5 μM, 1 μM). The data are expressed as the average IC50 from the assays±standard error of the mean.

[2] = biological target: T2, Recombinant human JAK3 catalytic domain (Homo sapiens, UniProt P52333); experiment: JAK3 inhibition assay; format: biochemical; conditions: polyGT substrate, 33P-gamma-ATP filter assay, 1 μM ATP
T2 construct: catalytic domain (amino acids 795-1124; catalog number 08-046); purchased Carna Biosciences 08-046
T2 sequence (P52333 795-1124): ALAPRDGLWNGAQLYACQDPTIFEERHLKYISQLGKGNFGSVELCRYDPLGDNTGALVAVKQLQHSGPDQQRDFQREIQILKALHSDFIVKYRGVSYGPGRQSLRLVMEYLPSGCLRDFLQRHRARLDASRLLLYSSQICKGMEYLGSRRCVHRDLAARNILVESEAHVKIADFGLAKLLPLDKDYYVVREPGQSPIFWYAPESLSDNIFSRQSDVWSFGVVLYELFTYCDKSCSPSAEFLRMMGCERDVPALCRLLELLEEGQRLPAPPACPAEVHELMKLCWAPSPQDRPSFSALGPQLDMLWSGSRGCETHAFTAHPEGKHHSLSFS
Procedure: Recombinant human JAK3 catalytic domain (amino acids 795-1124; catalog number 08-046) was purchased from Carna Biosciences. 0.5 ng JAK3 protein was incubated with 2.5 μg polyGT substrate (Sigma catalog number P0275) in kinase reaction buffer (25 mM Tris pH 7.5, 0.5 mM EGTA, 10 mM MgCl2, 2.5 mM DTT, 0.5 mM Na3VO4, 5 mM b-glycerolphosphate, 0.01% Triton X-100, 1 μM non-radioactive ATP, 0.25 μCi ^33P-gamma-ATP (Perkin Elmer, catalog number NEG602K001MC) final concentrations) with or without 5 μL containing test compound or vehicle (DMSO, 1% final concentration), in a total volume of 25 μL, in a polypropylene 96-well plate (Greiner, V-bottom). After 45 min at 30° C., reactions were stopped by adding 25 μL/well of 150 mM phosphoric acid. All of the terminated kinase reaction was transferred to prewashed (75 mM phosphoric acid) 96 well filter plates (Perkin Elmer catalog number 6005177) using a cell harvester (Perkin Elmer). Plates were washed 6 times with 300 μL per well of a 75 mM phosphoric acid solution and the bottom of the plates was sealed. 40 μL/well of Microscint-20 was added, the top of the plates was sealed and readout was performed using the Topcount (Perkin Elmer). Kinase activity was calculated by subtracting counts per min (cpm) obtained in the presence of a positive control inhibitor (10 μM staurosporine) from cpm obtained in the presence of vehicle. The ability of a test compound to inhibit this activity was determined as: Percentage inhibition=((cpm determined for sample with test compound present−cpm determined for sample with positive control inhibitor)divided by(cpm determined in the presence of vehicle−cpm determined for sample with positive control inhibitor))*100.
Dose dilution series were prepared for the compounds enabling the testing of dose-response effects in the JAK3 assay and the calculation of the IC50 for each compound. Each compound was routinely tested at concentration of 20 μM followed by a ⅕ serial dilution, 10 points in a final concentration of 1% DMSO. When potency of compound series increased, more dilutions were prepared and/or the top concentration was lowered (e.g. 5 μM, 1 μM).

Row | SMILES | IC50 [1] [nM] | IC50 (Recombinant human JAK1) [nM] | IC50 [2] [nM]
1 | O=C(Nc1cc2c(-c3ccc(CN4CCS(=O)(=O)CC4)cc3)cccn2n1)C1CC1 [Compound 10, Cyclopropanecarboxylic acid {4-[4-(1,1-dioxo-thiomorpholin-4-ylmethyl)-phenyl]-pyrazolo[1,5-a]pyridin-2-yl}-amide] | 101 to 500 | 0.01 to 100 | 0.01 to 100
2 | O=C(Nc1nn2cccc(-c3ccc(CN4CCS(=O)(=O)CC4)cc3)c2c1F)C1CC1 [Compound 11, Cyclopropanecarboxylic acid {4-[4-(1,1-dioxo-thiomorpholin-4-ylmethyl)-phenyl]-3-fluoro-pyrazolo[1,5-a]pyridin-2-yl}-amide] | 501 to 1000 | 0.01 to 100 | 0.01 to 100
3 | O=C(Nc1nn2cccc(-c3ccc(CN4CCS(=O)(=O)CC4)cc3)c2c1Br)C1CC1 [Compound 12, Cyclopropanecarboxylic acid {4-[4-(1,1-dioxo-thiomorpholin-4-ylmethyl)-phenyl]-3-bromo-pyrazolo[1,5-a]pyridin-2-yl}-amide] | > 1000 | 0.01 to 100 | 101 to 500
4 | O=C(Nc1nn2cccc(-c3ccc(CN4CCS(=O)(=O)CC4)cc3)c2c1Cl)C1CC1 [Compound 13, Cyclopropanecarboxylic acid {4-[4-(1,1-dioxo-thiomorpholin-4-ylmethyl)-phenyl]-3-chloro-pyrazolo[1,5-a]pyridin-2-yl}-amide] | 501 to 1000 | 0.01 to 100 | 101 to 500
5 | O=C(Nc1cc2c(-c3ccc(C(=O)N4CCCCC4)cc3)cccn2n1)C1CC1 [Compound 14, Cyclopropanecarboxylic acid {4-[4-(piperidine-1-carbonyl)-phenyl]-pyrazolo[1,5-a]pyridin-2-yl}-amide] | 101 to 500 | 0.01 to 100 | 101 to 500
6 | CS(=O)(=O)N1CCN(Cc2ccc(-c3cccn4nc(NC(=O)C5CC5)cc34)cc2)CC1 [Compound 15, N-(4-(4-((4-(methylsulfonyl)piperazin-1-yl)methyl)phenyl)pyrazolo[1,5-a]pyridin-2-yl)cyclopropanecarboxamide] | 101 to 500 | 0.01 to 100 | 0.01 to 100
7 | CS(=O)(=O)C1CCN(Cc2ccc(-c3cccn4nc(NC(=O)C5CC5)cc34)cc2)CC1 [Compound 17, N-(4-(4-((4-(methylsulfonyl)piperidin-1-yl)methyl)phenyl)pyrazolo[1,5-a]pyridin-2-yl)cyclopropanecarboxamide] | 501 to 1000 | 0.01 to 100 | 101 to 500
8 | CS(=O)(=O)C1CCN(Cc2ccc(-c3cccn4nc(NC(=O)C5CC5)cc34)cc2F)CC1 [Compound 18, N-(4-(3-fluoro-4-((4-(methylsulfonyl)piperidin-1-yl)methyl)phenyl)pyrazolo[1,5-a]pyridin-2-yl)cyclopropanecarboxamide] | 101 to 500 | 0.01 to 100 | 101 to 500
9 | CS(=O)(=O)C1CCN(Cc2ccc(-c3cccn4nc(NC(=O)C5CC5)c(Cl)c34)cc2)CC1 [Compound 19, N-(3-chloro-4-(4-((4-(methylsulfonyl)piperidin-1-yl)methyl)phenyl)pyrazolo[1,5-a]pyridin-2-yl)cyclopropanecarboxamide] | > 1000 | 0.01 to 100 | > 1000
10 | CS(=O)(=O)C1CCN(Cc2ccc(-c3cccn4nc(NC(=O)C5CC5)c(Cl)c34)cc2F)CC1 [Compound 20, N-(3-chloro-4-(3-fluoro-4-((4-(methylsulfonyl)piperidin-1-yl)methyl)phenyl)pyrazolo[1,5-a]pyridin-2-yl)cyclopropanecarboxamide] | > 1000 | 0.01 to 100 | 501 to 1000
11 | CC(=O)Nc1cc2c(-c3ccc(CN4CCN(S(C)(=O)=O)CC4)c(F)c3)cccn2n1 [Compound 21] | 501 to 1000 | 0.01 to 100 | 101 to 500
12 | CS(=O)(=O)N1CCN(Cc2ccc(-c3cccn4nc(NC(=O)C5CC5)cc34)cn2)CC1 [Compound 23, N-(4-(6-((4-(methylsulfonyl)piperazin-1-yl)methyl)pyridin-3-yl)pyrazolo[1,5-a]pyridin-2-yl)cyclopropanecarboxamide] | > 1000 | 0.01 to 100 | 101 to 500
13 | CC(=O)Nc1cc2c(-c3ccc(CN4CCN(S(C)(=O)=O)C[C@H]4C)cc3)cccn2n1 [Compound 24, (R)-N-(4-(4-((2-methyl-4-(methylsulfonyl)piperazin-1-yl)methyl)phenyl)pyrazolo[1,5-a]pyridin-2-yl)acetamide] | > 1000 | 0.01 to 100 | 501 to 1000
14 | CC(=O)Nc1cc2c(-c3ccc(CN4CCN(S(C)(=O)=O)CC4)cc3)cccn2n1 [Compound 25, N-(4-(4-((4-(methylsulfonyl)piperazin-1-yl)methyl)phenyl)pyrazolo[1,5-a]pyridin-2-yl)acetamide] | 501 to 1000 | 0.01 to 100 | 101 to 500
15 | CC(=O)Nc1cc2c(-c3cnc(CN4CCN(S(C)(=O)=O)CC4)c(F)c3)cccn2n1 [Compound 26, N-(4-(5-fluoro-6-((4-(methylsulfonyl)piperazin-1-yl)methyl)pyridin-3-yl)pyrazolo[1,5-a]pyridin-2-yl)acetamide] | > 1000 | 101 to 500 | > 1000
16 | CC(=O)Nc1cc2c(-c3ccc(CN4CCS(=O)(=O)CC4)c(F)c3)cccn2n1 [Compound 27, N-{4-[4-(1,1-Dioxo-thiomorpholin-4-ylmethyl)-3-fluoro-phenyl]-pyrazolo[1,5-a]pyridin-2-yl}-acetamide] | 101 to 500 | 0.01 to 100 | 0.01 to 100

Source: US8975406B2, “Compound useful for the treatment of degenerative and inflammatory diseases” (Galapagos N.V., priority 2011, dated 2015)
